test: Inhibition of leukotriene release in ICR mouse BMCMC […] after 6 hrs by ELISA; type: functional

Row | Compound | inhibition (INH) [%]
1 | CC1=CC(=O)CC(C)(C)[C@]1(O)/C=C/[C@@H](C)O[C@@H]1O[C@H](CO)[C@@H](O)[C@H](O)[C@H]1O | 22.9
2 | CC1=CC(=O)CC(C)(C)[C@]1(O)/C=C/[C@H](C)O[C@@H]1O[C@H](CO)[C@@H](O)[C@H](O)[C@H]1O | 36.7
3 | CC1=CC(=O)CC(C)(C)[C@@]1(O)/C=C/[C@@H](C)O[C@@H]1O[C@H](CO)[C@@H](O)[C@H](O)[C@H]1O [6S,9R-ROSEOSIDE] | 67.4
4 | CC1=CC(=O)CC(C)(C)[C@@]1(O)/C=C/[C@H](C)O[C@@H]1O[C@H](CO)[C@@H](O)[C@H](O)[C@H]1O [6S,9S-ROSEOSIDE] | 70.3

Reference: ChEMBL document CHEMBL1139288, “A simple synthesis of four stereoisomers of roseoside and their inhibitory activity on leukotriene release from mice bone marrow-derived cultured mast cells” (2009)
